Measurements from US20240343694A1, “PYRIMIDINE DERIVATIVE, METHOD FOR PREPARING SAME, AND PHARMACEUTICAL COMPOSITION FOR PREVENTING OR TREATING CANCER COMPRISING SAME AS ACTIVE INGREDIENT” (KOREA RESERARCH INSTITUTE OF CHEMICAL TECHNOLOGY, priority 2021, published 2024).

Experiments:
EGFR del19 = EGFR del19 (Homo sapiens (Human), UniProt P00533, DEL746-750); assay: HTRF inhibitory activity against EGFR mutant enzyme (EGFR del19); type: biochemical; conditions: recombinant enzyme, 37° C. for 2 hours
Chain of EGFR del19 (P00533 other isoform, or with tags, fused parts or gaps del 1-668/del 746-750 limits assumed): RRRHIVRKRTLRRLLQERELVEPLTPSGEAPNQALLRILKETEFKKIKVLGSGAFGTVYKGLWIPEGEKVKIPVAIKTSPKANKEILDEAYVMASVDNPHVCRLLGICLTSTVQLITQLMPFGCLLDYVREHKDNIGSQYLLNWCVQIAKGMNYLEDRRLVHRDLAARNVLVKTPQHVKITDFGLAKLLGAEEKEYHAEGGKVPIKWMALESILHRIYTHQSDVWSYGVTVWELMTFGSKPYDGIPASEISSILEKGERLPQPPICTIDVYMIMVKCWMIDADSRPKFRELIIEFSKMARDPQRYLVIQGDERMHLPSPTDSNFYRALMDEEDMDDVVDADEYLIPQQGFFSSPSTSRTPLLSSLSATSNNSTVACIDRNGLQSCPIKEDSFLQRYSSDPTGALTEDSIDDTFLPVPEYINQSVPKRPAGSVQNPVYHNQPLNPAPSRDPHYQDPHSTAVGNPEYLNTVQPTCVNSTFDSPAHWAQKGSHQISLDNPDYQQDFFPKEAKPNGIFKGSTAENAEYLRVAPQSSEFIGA
In short: (§1)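 Recombinant EGFR del19 or A763_Y764insFHEA was premixed with compound in 50 mM Tris pH 7.5 with 7.5 mM MgCl2 and 1 mM DTT. ATP (50 mM as printed) and biotin-peptide (0.5 mM) were added and reacted 2 h at 37 °C. The HTRF 665/615 read used streptavidin-XL665 and Eu anti-phosphotyrosine. IC50 was fitted from 7 concentrations.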

HER2 A775_G776insYVMA = HER2 A775_G776insYVMA (Homo sapiens (Human), UniProt P04626, INS775YVMA); assay: HTRF inhibitory activity against HER2 mutant enzyme; type: biochemical; conditions: recombinant enzyme, 37° C. for 2 hours
Chain of HER2 A775_G776insYVMA (P04626 other isoform, or with tags, fused parts or gaps del 1-675/ins YVMA behind 775 limits assumed): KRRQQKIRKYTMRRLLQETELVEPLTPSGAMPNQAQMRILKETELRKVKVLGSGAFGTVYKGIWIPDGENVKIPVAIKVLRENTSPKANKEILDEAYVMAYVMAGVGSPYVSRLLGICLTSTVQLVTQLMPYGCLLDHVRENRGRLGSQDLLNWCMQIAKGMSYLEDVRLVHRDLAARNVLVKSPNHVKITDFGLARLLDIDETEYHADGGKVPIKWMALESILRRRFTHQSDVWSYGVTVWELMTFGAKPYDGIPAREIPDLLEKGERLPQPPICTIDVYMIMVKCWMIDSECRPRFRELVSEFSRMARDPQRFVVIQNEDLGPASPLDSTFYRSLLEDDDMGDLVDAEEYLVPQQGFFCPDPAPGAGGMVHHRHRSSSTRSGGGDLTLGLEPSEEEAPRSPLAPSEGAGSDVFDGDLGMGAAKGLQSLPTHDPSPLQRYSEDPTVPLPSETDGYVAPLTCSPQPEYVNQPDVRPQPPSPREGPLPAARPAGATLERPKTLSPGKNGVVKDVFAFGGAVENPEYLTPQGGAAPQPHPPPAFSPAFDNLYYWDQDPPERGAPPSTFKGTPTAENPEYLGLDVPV
In short: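 Recombinant HER2 A775_G776insYVMA preincubated with compound, then […] and biotinylated peptide ([…]) added; 2 h at 37 °C in Tris-HCl pH 7.5 buffer with MgCl2, DTT. HTRF detection (Eu anti-phosphotyrosine/streptavidin-XL665); IC50 from 7 concentrations.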

EGFR A763_Y764insFHEA = EGFR A763_Y764insFHEA (Homo sapiens (Human), UniProt P00533, INS763FHEA); assay: HTRF inhibitory activity against EGFR mutant enzyme (EGFR A763_Y764insFHEA); type: biochemical; conditions: recombinant enzyme, 37° C. for 2 hours
Chain of EGFR A763_Y764insFHEA (P00533 other isoform, or with tags, fused parts or gaps del 1-694/ins FHEA behind 763 limits assumed): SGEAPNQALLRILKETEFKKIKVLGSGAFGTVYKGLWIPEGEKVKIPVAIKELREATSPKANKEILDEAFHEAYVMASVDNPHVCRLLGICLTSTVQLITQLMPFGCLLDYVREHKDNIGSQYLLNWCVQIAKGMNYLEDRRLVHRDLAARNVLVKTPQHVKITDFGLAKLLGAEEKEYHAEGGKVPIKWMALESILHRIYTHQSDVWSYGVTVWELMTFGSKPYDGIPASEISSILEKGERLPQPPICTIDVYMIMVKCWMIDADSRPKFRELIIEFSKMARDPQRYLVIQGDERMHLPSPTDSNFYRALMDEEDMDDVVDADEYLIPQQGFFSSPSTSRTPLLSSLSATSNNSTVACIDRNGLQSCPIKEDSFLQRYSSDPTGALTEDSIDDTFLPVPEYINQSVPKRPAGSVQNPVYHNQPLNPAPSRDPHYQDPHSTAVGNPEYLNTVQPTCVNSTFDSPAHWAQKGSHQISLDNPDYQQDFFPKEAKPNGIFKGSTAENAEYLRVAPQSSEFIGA
In short: as §1

[1] = tested on: Ba/F3 HER2 A775_G776insYVMA; assay: Growth inhibition of Ba/F3 HER2 mutant cells (CellTiter-Glo); type: cell-based; conditions: Mus musculus, BaF3, 72 hours
Procedure: The activity of the compounds of the present invention against Ba/F3 HER2 A775_G776insYVMA and Ba/F3 HER2 G776delinsVC mutant cell lines was measured using the CellTiter-Glo system purchased from Promega as follows. CellTiter-Glo assay is a method to measure cell viability by monitoring ATP present in cells. Ba/F3 HER2 A775_G776insYVMA and Ba/F3 HER2 G776delinsVC mutant cell lines were purchased from Crown Biosciences. Ba/F3 HER2 A775_G776insYVMA and Ba/F3 HER2 G776delinsVC mutant cell lines were cultured in RPMI containing 10% FBS and 1% penicillin-streptomycin with 1 μg/mL of puromycin in a CO2 incubator at 37° C.
(§2) The analysis of the ability of the compounds to inhibit the growth of HER2 mutant cells was performed according to the following method. 1,000 cells/100 μL were seeded in a 96-well cell culture plate, and 24 hours thereafter, the compounds represented by Formula 1 were treated with 0 μM, 0.01 μM, 0.03 μM, 0.1 μM, 0.3 μM, 1 μM, 3 μM, and 10 μM. After reacting for 72 hours, the plate treated with the compounds were left at room temperature for 30 minutes, 100 μL of a reagent was added thereto, and then shaken at room temperature for 10 minutes. Finally, using equipment, the ratio of […] was measured to confirm the cell growth inhibition ability of the compounds. The measured values at 8 compound concentrations were analyzed using the Prism program (version 5.01, Graphpad Software, Inc.), and the IC50 (μM) values, which are measures of the compounds' inhibitory ability, were calculated.

[2] = tested on: Ba/F3 EGFR V769_D770insASV; assay: Growth inhibition of Ba/F3 EGFR mutant cells (CellTiter-Glo); type: cell-based; conditions: 72 hours
Procedure: (§3) The activity of the compounds of the present invention against Ba/F3 EGFR V769_D770insASV and Ba/F3 EGFR D770_N771insSVD mutant cell lines was measured using the CellTiter-Glo system purchased from Promega as follows. CellTiter-Glo assay is a method to measure cell viability by monitoring ATP present in cells. Ba/F3 EGFR V769_D770insASV and Ba/F3 EGFR D770_N771insSVD mutant cell lines were purchased from Crown Biosciences. Ba/F3 EGFR V769_D770insASV and Ba/F3 EGFR D770_N771insSVD mutant cell lines were cultured in RPMI containing 10% FBS and 1% penicillin-streptomycin with 1 μg/mL of puromycin in a 5% CO2 incubator at 37° C.
as §2, with “growth of EGFR mutant cells” for “growth of HER2 mutant cells”, “μM. After incubating for 72” for “μM. After reacting for 72”, “reagent was further added thereto,” for “reagent was added thereto,”

[3] = tested on: Ba/F3 EGFR D770_N771insSVD; assay: as above; type: cell-based; conditions: Ba/F3 EGFR-D770-N771ins_SVD, 72 hours
Procedure: as §3
as §2, with “growth of EGFR mutant cells” for “growth of HER2 mutant cells”, “μM. After incubating for 72” for “μM. After reacting for 72”, “reagent was further added thereto,” for “reagent was added thereto,”

| Compound | IC50 (EGFR del19) [nM] | IC50 (HER2 A775_G776insYVMA) [nM] | IC50 (EGFR A763_Y764insFHEA) [nM] | IC50 [1] [nM] | IC50 [2] [nM] | IC50 [3] [nM] |
| --- | --- | --- | --- | --- | --- | --- |
| C=CC(=O)Nc1cc(Nc2ncc(F)c(Nc3ccccc3NS(C)(=O)=O)n2)c(OC)cc1N(C)CCN(C)C [Example 11, N-(2-((2-(dimethylamino)ethyl)(methyl)amino)-5-((5-fluoro-4-((2-(methylsulfonamido)phenyl)amino)pyrimidin-2-yl)amino)-4-methoxyphenyl)acrylamide] | < 1 | 71 | 1 | > 100 | > 100 |  |
| C=CC(=O)Nc1cc(Nc2ncc(C)c(Nc3ccccc3NS(C)(=O)=O)n2)c(OC)cc1N(C)CCN(C)C [Example 16, N-(2-((2-(dimethylamino)ethyl)(methyl)amino)-4-methoxy-5-((5-methyl-4-((2-(methylsulfonamido)phenyl)amino)pyrimidin-2-yl)amino)phenyl)acrylamide] | < 1 | 51 | 2 | > 100 | > 100 |  |
| C=CC(=O)Nc1cc(Nc2ncc(Cl)c(Nc3cccc4c3N(S(C)(=O)=O)CCC4)n2)c(OC)cc1N(C)CCN1CCOCC1 [Example 53, N-(5-((5-chloro-4-((1-(methylsulfonyl)-1,2,3,4-tetrahydroquinolin-8-yl)amino)pyrimidin-2-yl)amino)-4-methoxy-2-(methyl(2-morpholinoethyl)amino)phenyl)acrylamide] |  | 10 |  | 10 to 30 | 10 to 30 | 10 to 30 |
| C=CC(=O)Nc1cc(Nc2ncc(C(=O)OC(C)C)c(Nc3cccc4c3N(S(C)(=O)=O)CC4)n2)c(OC)cc1N(C)CCN(C)C [Example 61, isopropyl 2-((5-acrylamido-4-((2-(dimethylamino)ethyl)(methyl)amino)-2-methoxyphenyl)amino)-4-((1-(methylsulfonyl)indolin-7-yl)amino)pyrimidin-5-carboxylate] | < 1 | 1 | < 1 | 10 to 30 | 10 to 30 | 10 to 30 |
| C=CC(=O)Nc1cc(Nc2ncc(C#N)c(Nc3cccc4c3N(S(C)(=O)=O)CC4)n2)c(OC)cc1N(C)CCN(C)C [Example 62, N-(5-((5-cyano-4-((1-(methylsulfonyl)indolin-7-yl)amino)pyrimidin-2-yl)amino)-2-((2-(dimethylamino)ethyl)(methyl)amino)-4-methoxyphenyl)acrylamide] |  | 3 |  | 10 to 30 | 10 to 30 | 10 to 30 |
| C=CC(=O)Nc1cc(Nc2ncc(Cl)c(Nc3cccc4c3N(S(C)(=O)=O)CC4)n2)c(OC)cc1OCCN(C)C [Example 63, N-(5-((5-chloro-4-((1-(methylsulfonyl)indolin-7-yl)amino)pyrimidin-2-yl)amino)-2-(2-(dimethylamino)ethoxy)-4-methoxyphenyl)acrylamide] |  | < 1 |  | 10 to 30 | 10 to 30 | 10 to 30 |
| C=CC(=O)Nc1cc(Nc2ncc(Cl)c(Nc3cccc4c3N(S(C)(=O)=O)CC4)n2)c(OC)cc1N(C)CCN1CCOCC1 [Example 64, N-(5-((5-chloro-4-((1-(methylsulfonyl)indolin-7-yl)amino)pyrimidin-2-yl)amino)-4-methoxy-2-(methyl(2-morpholinoethyl)amino)phenyl)acrylamide] | < 1 | 3 | < 1 | 10 to 30 | 30 to 50 | 30 to 50 |
| C=CC(=O)Nc1cc(Nc2ncc(C(F)(F)F)c(Nc3cccc4c3N(S(C)(=O)=O)CC4)n2)c(OC)cc1N(C)CCN(C)C [Example 65, N-(2-((2-(dimethylamino)ethyl)(methyl)amino)-4-methoxy-5-((4-((1-(methylsulfonyl)indolin-7-yl)amino)-5-(trifluoromethyl)pyrimidin-2-yl)amino)phenyl)acrylamide] | < 1 | 15 | < 1 | 10 to 30 | 10 to 30 | 10 to 30 |
| C=CC(=O)Nc1cc(Nc2ncc(Cl)c(Nc3cccc4c3N(S(C)(=O)=O)CC4)n2)c(OC)cc1N(C)CCN1CCCCC1 [Example 72, N-(5-((5-chloro-4-((1-(methylsulfonyl)indolin-7-yl)amino)pyrimidin-2-yl)amino)-4-methoxy-2-(methyl(2-(piperidin-1-yl)ethyl)amino)phenyl)acrylamide] | < 1 | 1 | < 1 |  | 10 to 30 | < 10 |
| C=CC(=O)Nc1cc(Nc2ncc(Cl)c(Nc3cccc4c3N(S(C)(=O)=O)CC4)n2)c(OC)cc1N(C)CCN1CCCC1 [Example 74, N-(5-((5-chloro-4-((1-(methylsulfonyl)indolin-7-yl)amino)pyrimidin-2-yl)amino)-4-methoxy-2-(methyl(2-(pyrrolidin-1-yl)ethyl)amino)phenyl)acrylamide] | < 1 | < 1 | < 1 |  | < 10 | < 10 |
| C=CC(=O)Nc1cc(Nc2ncc(Cl)c(Nc3ccc(C)cc3N(C)S(C)(=O)=O)n2)c(OC)cc1N(C)CCN1CCCC1 [Example 76, N-(5-((5-chloro-4-((4-methyl-2-(N-methylmethylsulfonamido)phenyl)amino)pyrimidin-2-yl)amino)-4-methoxy-2-(methyl(2-(pyrrolidin-1-yl)ethyl)amino)phenyl)acrylamide] | < 1 | 1 | < 1 |  | < 10 | < 10 |
| C=CC(=O)Nc1cc(Nc2ncc(Cl)c(Nc3cccc4c3N(S(C)(=O)=O)CC4)n2)c(OC)cc1OCCN1CCCC1 [Example 79, N-(5-((5-chloro-4-((1-(methylsulfonyl)indolin-7-yl)amino)pyrimidin-2-yl)amino)-4-methoxy-2-(2-(pyrrolidin-1-yl)ethoxy)phenyl)acrylamide] | < 1 | 1 | < 1 |  | 10 to 30 | < 10 |
| C=CC(=O)Nc1cc(Nc2ncc(Cl)c(Nc3cccc4c3N(S(C)(=O)=O)CC4)n2)c(OC)cc1N(C)CCN1CCC1 [Example 80, N-(2-((2-(azetidin-1-yl)ethyl)(methyl)amino)-5-((5-chloro-4-((1-(methylsulfonyl)indolin-7-yl)amino)pyrimidin-2-yl)amino)-4-methoxyphenyl)acrylamide] | < 1 | 1 | < 1 |  | < 10 | < 10 |
| C=CC(=O)Nc1cc(Nc2ncc(Cl)c(Nc3ccc(C)cc3N(C)S(C)(=O)=O)n2)c(OC)cc1N(C)CCN1CCC1 [Example 82, N-(2-((2-(azetidin-1-yl)ethyl)(methyl)amino)-5-((5-chloro-4-((4-methyl-2-(N-methylmethylsulfonamido)phenyl)amino)pyrimidin-2-yl)amino)-4-methoxyphenyl)acrylamide] | < 1 | 2 | < 1 |  | < 10 | < 10 |
